Read-outs that look alike come from different tables or passages of the source.
What was measured:
Erk1 = Erk1 (Homo sapiens (Human), UniProt P27361); assay: Protein Mass Modification Assay (intact protein MALDI); type: binding
How it was run: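 Human Erk1 was incubated 60 min at room temperature with a 10-fold molar excess of compound, then analysed as intact protein by MALDI with sinapinic acid matrix. The centroid mass shift versus untreated protein was divided by compound molecular weight to give percent modified protein.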

[1] = test system: ERK1 phosphorylation of its substrate RSK in HT29 cells; assay: pRSK MSD Assay in HT29 cells; type: cell-based; details: read-out: ERK1 PRSK MSD HT29 EC50
Protocol: The protocol below describes an assay to measure the kinase activity of ERK1 to phosphorylate its substrate, RSK, in the presence of a test compound. This experiment was conducted using a Mesoscale Discovery plate. The day before the assay, HT29 cells were split and plated at 50,000 cells/well in complete growth media. After allowing cells to adhere, the media was removed and replaced with media containing 0.1% FBS and incubated overnight. Blank MDS plates were coated with 25 μl/well RSK capture antibody and incubated at 4° C. overnight. The next day, the media was removed and replaced with 100 μl of media containing a test compound and incubated for 120 minutes at 37° C. The media was removed and replaced with 55 μl of well lysis buffer with protease and phosphatase inhibitors provided in the kit, followed by incubation at 4° C. for 30 minutes. 50 μl of lysate was transferred to a blocked MSD plate, followed by incubation at room temperature for 2 hours under constant shaking. The plate was washed 3 times with MSD wash buffer (cat#R617TX), and 25 μl/well phospho-RSK (pRSK) detection antibody was added with an appropriate Sulfo-tagged anti-species detection antibody diluted in 1% BSA in MSD wash buffer. This mixture was incubated for 1 hour at room temperature under constant shaking. The plate was washed 3 times, and 150 μl 1×MSD read buffer was added, followed by signal detection in an MSD plate reader.

MEK1 activated ERK1 = MEK1 activated ERK1 (Homo sapiens (Human), UniProt P27361); assay: Omnia continuous-read kinase assay for potency against MEK1 activated ERK1; type: biochemical; details: MEK1 activated ERK1, WT, ATP at KM
Sequence of MEK1 activated ERK1 (P27361 whole entry): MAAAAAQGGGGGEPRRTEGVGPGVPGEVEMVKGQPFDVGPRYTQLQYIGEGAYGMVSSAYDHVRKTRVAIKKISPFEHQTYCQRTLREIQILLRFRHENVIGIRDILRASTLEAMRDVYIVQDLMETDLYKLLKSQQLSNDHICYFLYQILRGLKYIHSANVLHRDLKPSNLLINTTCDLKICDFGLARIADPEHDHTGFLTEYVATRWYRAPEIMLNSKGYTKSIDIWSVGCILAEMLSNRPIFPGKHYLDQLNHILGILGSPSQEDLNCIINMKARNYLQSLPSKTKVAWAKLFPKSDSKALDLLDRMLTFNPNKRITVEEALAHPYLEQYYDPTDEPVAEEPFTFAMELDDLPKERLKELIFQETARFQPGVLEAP
How it was run: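 Apparent IC50 came from initial reaction slopes (RFU vs time) plotted against log inhibitor with a variable-slope fit. Reactions were started with ERK1 (4 nM final) added to 50 μM ATP, roughly at its appKM, and 10 μM Sox-conjugated ST17 peptide in 20 mM Tris pH 7.5, 5 mM MgCl2. Fluorescence was monitored every 71 seconds.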

HT-29 cells = assay: Measurement of inhibition of cancer cell proliferation (CellTiterGlo); type: cell-based; details: Homo sapiens, 72 hours
Protocol: Measurement of Inhibition of Cancer Cell Proliferation
HT-29 cells were split and 3000 cells in 100 μl of growth medium were added per well of a flat-bottom 96-well plate. A two-fold test compound solution in serum-free RPM1640 was made, starting at 5,000 nM. Then, 3-fold serial dilutions were made across the plate from well 1 to well 11. Well 12, the last well in a row on the plate, was left as untreated control. 100 μl compound solutions were then transferred to the wells, so the total volume of media was 200 μl per well. Plates were returned to a 37° C. incubator, and the cells were cultured for 72 hours. To measure cell proliferation after 72 hours, media was discarded from the plates, 50 μl/well of fresh medium was added, and 50 μl CellTiterGlo solution was added (Promega Cat#G7573). The plate was covered with a dark lid and incubated for 10 min. A sealing tape was applied to the bottom of the plate, and the plate was read in a luminescence plate reader. […] A 2-fold serial dilution was used to generate 8 cell densities from 50,000-390 cells per well in 50 μl media. 50 μl CellTiterGlo was added per well, and the plate was read in a luminescence plate reader after 10 min. The reading was plotted vs. cell number to generate a standard curve and the equation of the curve fit. The compound-treated sample luminescence readings were converted to cell numbers using the equation. The percent of inhibition, using untreated control as 100% growth, was then calculated. GI50 was then calculated by GraphPad Prism.

[2] = Homo sapiens, HT-29, HT29 cells

Sequence of Erk1 (P27361 whole entry, looked up): as the sequence (P27361 whole entry) above

Row | ERK1 Mass Mod (%) (Erk1) | EC50 [1, 2] [nM] | IC50 (MEK1 activated ERK1) [nM] | EC50 ([1]; HT29 cells) [nM] | Compound | GI50 (HT-29 cells) [nM]
1 | E (provided a mass modification of ≧70%) | 101 to 500 | < 100 | – | C=CC(=O)Nc1ccccc1Nc1nc(NC2CCC(=O)CC2)ncc1C(F)(F)F [Compound I-23, N-(2-((2-((4-Oxocyclohexyl)amino)-5-(trifluoromethyl)pyrimidin-4-yl)amino)phenyl)acrylamide] | –
2 | E (provided a mass modification of ≧70%) | 101 to 500 | < 100 | – | C=CC(=O)Nc1cc(C)ccc1Nc1nc(N[C@H]2CCCN(C(=O)CC)C2)ncc1C(F)(F)F [Compound I-41, (S)—N-(5-Methyl-2-((2-((1-propionylpiperidin-3-yl)amino)-5-(trifluoromethyl)pyrimidin-4-yl)amino)phenyl)acrylamide] | –
3 | G (proived a mass modification ≦30%) | > 1000 | < 100 | – | C/C=C/S(=O)(=O)Nc1cc(F)ccc1Nc1nc(N[C@H]2CCCN(C(=O)CO)C2)ncc1C(F)(F)F [Compound I-48, (S,E)-N-(5-Fluoro-2-((2-((1-(2-hydroxyacetyl)piperidin-3-yl)amino)-5-(trifluoromethyl)pyrimidin-4-yl)amino)phenyl)prop-1-ene-1-sulfonamide] | –
4 | E (provided a mass modification of ≧70%) | < 100 | < 100 | – | C=CC(=O)Nc1ccccc1Nc1nc(NC2CCOCC2)ncc1Cl [Compound I-108, N-(2-((5-chloro-2-((tetrahydro-2H-pyran-4-yl)amino)pyrimidin-4-yl)amino)phenyl) acrylamide] | –
5 | E (provided a mass modification of ≧70%) | 101 to 500 | 101 to 500 | – | C=CC(=O)Nc1ccccc1Nc1nc(N[C@H]2CC[C@@H](F)CC2)ncc1C(F)(F)F [Compound I-110, N-(2-((2-(cis-(4-fluorocyclohexyl)amino)-5-(trifluoromethyl)pyrimidin-4-yl)amino)phenyl)acrylamide] | –
6 | E (provided a mass modification of ≧70%) | – | 101 to 500 | 101 to 500 | C=CC(=O)Nc1ccccc1Nc1nc(N[C@H]2CC[C@H](F)CC2)ncc1C(F)(F)F [Compound I-111, N-(2-((2-(trans-(4-fluorocyclohexyl)amino)-5-(trifluoromethyl)pyrimidin-4-yl)amino)phenyl)acrylamide] | –
7 | E (provided a mass modification of ≧70%) | 101 to 500 | < 100 | – | C=CC(=O)Nc1cc(Cl)ccc1Nc1nc(Nc2cc(OC)ncc2C)ncc1Cl [Compound I-248, N-(5-chloro-2-((5-chloro-2-((2-methoxy-5-methylpyridin-4-yl)amino)pyrimidin-4-yl)amino)phenyl)acrylamide] | –
8 | G (proived a mass modification ≦30%) | > 1000 | > 1000 | – | CC(C)=CC(=O)c1ccccc1Oc1nc(Nc2ccc(F)cc2C)ncc1C(N)=O [Compound I-272, 2-((4-fluoro-2-methylphenyl)amino)-4-(2-(3-methylbut-2-enoyl)phenoxy)pyrimidine-5-carboxamide] | –
9 | – | > 1000 | > 1000 | – | CCC(=O)Nc1ccccc1Nc1nc(Nc2ccc(N(CC)C(C)=O)cc2C#N)ncc1Cl [Compound I-316, N-(2-((5-chloro-2-((2-cyano-4-(N-ethylacetamido)phenyl)amino)pyrimidin-4-yl)amino)phenyl)propionamide] | –
10 | E (provided a mass modification of ≧70%) | 101 to 500 | < 100 | – | C=CC(=O)Nc1ccccc1Nc1nc(Nc2cc(OC)nc(N3CCN(C)CC3)c2)ncc1C(F)(F)F [Compound I-324, N-(2-((2-((2-methoxy-6-(4-methylpiperazin-1-yl)pyridin-4-yl)amino)-5-(trifluoromethyl)pyrimidin-4-yl)amino)phenyl)acrylamide] | –
11 | E (provided a mass modification of ≧70%) | > 1000 | > 1000 | – | C=CC(=O)Nc1ccccc1Nc1nc(Nc2c[nH]nc2C)ncc1C(F)(F)F [Compound I-330, N-(2-((2-((3-methyl-1H-pyrazol-4-yl)amino)-5-(trifluoromethyl)pyrimidin-4-yl)amino)phenyl)acrylamide] | –
12 | E (provided a mass modification of ≧70%) | 101 to 500 | > 1000 | – | C=CC(=O)Nc1cc(C)ccc1Nc1nc(Nc2cnnc(Cl)c2)ncc1C(F)(F)F [Compound I-331, N-(2-((2-((6-chloropyridazin-4-yl)amino)-5-(trifluoromethyl)pyrimidin-4-yl)amino)-5-methylphenyl)acrylamide] | –
13 | E (provided a mass modification of ≧70%) | 101 to 500 | > 1000 | – | C=CC(=O)Nc1cc(C)ccc1Nc1nc(Nc2cc(OC)cc(OC)c2)ncc1C(F)(F)F [Compound I-339, N-(2-((2-((3,5-dimethoxyphenyl)amino)-5-(trifluoromethyl)pyrimidin-4-yl)amino)-5-methylphenyl)acrylamide] | –
14 | E (provided a mass modification of ≧70%) | < 100 | < 100 | – | C=CC(=O)Nc1cc(C)ccc1Nc1nc(Nc2nc(OC)ncc2Cl)ncc1C(F)(F)F [Compound I-344, N-(2-((2-((5-chloro-2-methoxypyrimidin-4-yl)amino)-5-(trifluoromethyl)pyrimidin-4-yl)amino)-5-methylphenyl)acrylamide] | –
15 | E (provided a mass modification of ≧70%) | 101 to 500 | 101 to 500 | – | C=CC(=O)Nc1cc(C)ccc1Nc1nc(Nc2nc(OC)ncc2C)ncc1C(F)(F)F [Compound I-347, N-(2-((2-((2-methoxy-5-methylpyrimidin-4-yl)amino)-5-(trifluoromethyl)pyrimidin-4-yl)amino)-5-methylphenyl)acrylamide] | –
16 | G (proived a mass modification ≦30%) | 501 to 999 | > 1000 | – | C=CC(=O)Nc1cc(C)ccc1Nc1nc(Nc2cc(OC)ncn2)ncc1C(F)(F)F [Compound I-348, N-(2-((2-((6-methoxypyrimidin-4-yl)amino)-5-(trifluoromethyl)pyrimidin-4-yl)amino)-5-methylphenyl)acrylamide] | –
17 | G (proived a mass modification ≦30%) | > 1000 | > 1000 | – | CCC(=O)Nc1cc(C)ccc1Nc1nc(Nc2cc(OC)ncc2C)ncc1C(F)(F)F [Compound I-352, N-(2-((2-((2-methoxy-5-methylpyridin-4-yl)amino)-5-(trifluoromethyl)pyrimidin-4-yl)amino)-5-methylphenyl)propionamide] | –
18 | G (proived a mass modification ≦30%) | > 1000 | > 1000 | – | COc1cc(Nc2ncc(C(F)(F)F)c(Nc3ccc(C)cc3N)n2)c(C)cn1 [Compound I-353, N^4-(2-amino-4-methylphenyl)-N^2-(2-methoxy-5-methylpyridin-4-yl)-5-(trifluoromethyl)pyrimidine-2,4-diamine] | –

Row | Compound | ERK1 Mass Mod (%) (Erk1) | EC50 [1, 2] [nM] | IC50 (MEK1 activated ERK1) [nM] | EC50 ([1]; HT29 cells) [nM] | GI50 (HT-29 cells) [nM]
19 | C=C(C)S(=O)(=O)Nc1ccccc1Nc1nc(NC2CCC(=O)CC2)ncc1C(F)(F)F [Compound I-40, N-(2-((2-((4-Oxocyclohexyl)amino)-5-(trifluoromethyl)pyrimidin-4-yl)amino)phenyl)prop-1-ene-2-sulfonamide] | F (provided a mass modification of 31-69%) | > 1000 | < 100 | – | –
20 | C=CC(=O)Nc1ccccc1Nc1nc(Nc2ccc(N3CCN(C(C)=O)CC3)cc2OC)ncc1C(F)(F)F [Compound I-66, N-(2-((2-((4-(4-Acetylpiperazin-1-yl)-2-methoxyphenyl)amino)-5-(trifluoromethyl)pyrimidin-4-yl)amino)phenyl)acrylamide] | E (key: E: provided a mass modification of ≧70%; F: provided a mass modification of 31-69%; G: proived a mass modification ≦30%) | – | – | – | 101 to 500

— patent US9796700B2 (Celgene CAR LLC, priority 2013, dated 2017)
